Test results published in PubChem BioAssay AID1918999 (Molecular Pharmacology Branch, DTP, NCI, 2023).
Each block holds one molecule with its values, some of them ahead of it.

System: 556581-035-R-J1-PDC complex spheroid growth
Assay: Anticancer human tumor 556581-035-R-J1-PDC patient-derived ovarian carcinoma cell line growth inhibition [AhR]
Settings: for IC50: curve of first compound; for viability, T/C: stronger effect = lower value
In short: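 Spheroids combined tumor cells with HUVEC endothelial cells and human MSCs as stroma. AhR antagonists were paired with standard or investigational drugs, each dosed in half-log steps down from near clinical Cmax, or from 10 microM where Cmax was unknown.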

[1] = second compound 0.1 µM, first compound 0.00949 µM
[2] = second compound 0.1 µM, first compound 0.03 µM
[3] = second compound 0.1 µM, first compound 0.0949 µM
[4] = second compound 0.1 µM, first compound 0.3 µM
[5] = second compound 0.316 µM, first compound 0.00949 µM
[6] = second compound 0.316 µM, first compound 0.03 µM
[7] = second compound 0.316 µM, first compound 0.0949 µM
[8] = second compound 0.316 µM, first compound 0.3 µM
[9] = second compound 1 µM, first compound 0.00949 µM
[10] = second compound 1 µM, first compound 0.03 µM
[11] = second compound 1 µM, first compound 0.0949 µM
[12] = second compound 1 µM, first compound 0.3 µM
[13] = second compound 3.16 µM, first compound 0.00949 µM
[14] = second compound 3.16 µM, first compound 0.03 µM
[15] = second compound 3.16 µM, first compound 0.0949 µM
[16] = second compound 3.16 µM, first compound 0.3 µM
[17] = second compound 10 µM, first compound 0.00949 µM
[18] = second compound 10 µM, first compound 0.03 µM
[19] = second compound 10 µM, first compound 0.0949 µM
[20] = second compound 10 µM, first compound 0.3 µM
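Throughout, for viability, T/C: compound exposure lasted 7 days; 100% = DMSO vehicle control growth.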

- IC50 (second compound 0.1 µM): 5.38 µM
- IC50 (second compound 0.316 µM): 6.65 µM
- IC50 (second compound 1 µM): 7.72 µM
- IC50 (second compound 3.16 µM): > 10 µM
- IC50 (second compound 10 µM): > 10 µM
SMILES: COc1ccc([C@@H](O)c2cc(-c3ncnc4cc(N5CCOCC5)ccc34)c(F)cc2Cl)nn1 + CC(CO)NC(=O)c1cc(-c2ccc(Cl)cc2)nn(-c2cnn(C)c2)c1=O
- viability, T/C (second compound 0.1 µM, first compound 0.0316 µM): 98%
- viability, T/C (second compound 0.1 µM, first compound 0.1 µM): 105%
- viability, T/C (second compound 0.1 µM, first compound 0.316 µM): 92.9%
- viability, T/C (second compound 0.1 µM, first compound 1 µM): 69.7%
- viability, T/C (second compound 0.1 µM, first compound 3.16 µM): 61%
- viability, T/C (second compound 0.1 µM, first compound 10 µM): 41%
- viability, T/C (second compound 0.316 µM, first compound 0.0316 µM): 110%
- viability, T/C (second compound 0.316 µM, first compound 0.1 µM): 108%
- viability, T/C (second compound 0.316 µM, first compound 0.316 µM): 99.9%
- viability, T/C (second compound 0.316 µM, first compound 1 µM): 69.5%
- viability, T/C (second compound 0.316 µM, first compound 3.16 µM): 58.7%
- viability, T/C (second compound 0.316 µM, first compound 10 µM): 45%
- viability, T/C (second compound 1 µM, first compound 0.0316 µM): 104%
- viability, T/C (second compound 1 µM, first compound 0.1 µM): 117%
- viability, T/C (second compound 1 µM, first compound 0.316 µM): 108%
- viability, T/C (second compound 1 µM, first compound 1 µM): 91.1%
- viability, T/C (second compound 1 µM, first compound 3.16 µM): 61.9%
- viability, T/C (second compound 1 µM, first compound 10 µM): 46.4%
- viability, T/C (second compound 3.16 µM, first compound 0.0316 µM): 113%
- viability, T/C (second compound 3.16 µM, first compound 0.1 µM): 112%
- viability, T/C (second compound 3.16 µM, first compound 0.316 µM): 105%
- viability, T/C (second compound 3.16 µM, first compound 1 µM): 85.3%
- viability, T/C (second compound 3.16 µM, first compound 3.16 µM): 64.3%
- viability, T/C (second compound 3.16 µM, first compound 10 µM): 51.7%
- viability, T/C (second compound 10 µM, first compound 0.0316 µM): 113%
- viability, T/C (second compound 10 µM, first compound 0.1 µM): 110%
- viability, T/C (second compound 10 µM, first compound 0.316 µM): 109%
- viability, T/C (second compound 10 µM, first compound 1 µM): 82%
- viability, T/C (second compound 10 µM, first compound 3.16 µM): 62.4%
- viability, T/C (second compound 10 µM, first compound 10 µM): 53.2%

- IC50 (second compound 0.1 µM): > 0.3 µM
- IC50 (second compound 0.316 µM): > 0.3 µM
- IC50 (second compound 1 µM): > 0.3 µM
- IC50 (second compound 3.16 µM): > 0.3 µM
- IC50 (second compound 10 µM): > 0.3 µM
SMILES: Nc1ncn(C2CC(O)C(CO)S2)c(=O)n1 (stereo not given) + CC(CO)NC(=O)c1cc(-c2ccc(Cl)cc2)nn(-c2cnn(C)c2)c1=O
- viability, T/C (second compound 0.1 µM, first compound 0.000949 µM): 122%
- viability, T/C (second compound 0.1 µM, first compound 0.003 µM): 117%
- viability, T/C [1]: 106%
- viability, T/C [2]: 115%
- viability, T/C [3]: 109%
- viability, T/C [4]: 73.3%
- viability, T/C (second compound 0.316 µM, first compound 0.000949 µM): 112%
- viability, T/C (second compound 0.316 µM, first compound 0.003 µM): 106%
- viability, T/C [5]: 116%
- viability, T/C [6]: 111%
- viability, T/C [7]: 100%
- viability, T/C [8]: 69.9%
- viability, T/C (second compound 1 µM, first compound 0.000949 µM): 114%
- viability, T/C (second compound 1 µM, first compound 0.003 µM): 131%
- viability, T/C [9]: 126%
- viability, T/C [10]: 121%
- viability, T/C [11]: 108%
- viability, T/C [12]: 80.2%
- viability, T/C (second compound 3.16 µM, first compound 0.000949 µM): 123%
- viability, T/C (second compound 3.16 µM, first compound 0.003 µM): 128%
- viability, T/C [13]: 125%
- viability, T/C [14]: 109%
- viability, T/C [15]: 97.1%
- viability, T/C [16]: 80.8%
- viability, T/C (second compound 10 µM, first compound 0.000949 µM): 122%
- viability, T/C (second compound 10 µM, first compound 0.003 µM): 111%
- viability, T/C [17]: 111%
- viability, T/C [18]: 125%
- viability, T/C [19]: 106%
- viability, T/C [20]: 84%

- IC50 (second compound 0.1 µM): > 3 µM
- IC50 (second compound 0.316 µM): > 3 µM
- IC50 (second compound 1 µM): > 3 µM
- IC50 (second compound 3.16 µM): > 3 µM
- IC50 (second compound 10 µM): > 3 µM
SMILES: O=C(C=Cn1cnc(-c2cc(C(F)(F)F)cc(C(F)(F)F)c2)n1)NNc1cnccn1 + CC(CO)NC(=O)c1cc(-c2ccc(Cl)cc2)nn(-c2cnn(C)c2)c1=O
- viability, T/C [1]: 84%
- viability, T/C [2]: 84.2%
- viability, T/C [3]: 87.6%
- viability, T/C [4]: 69.3%
- viability, T/C (second compound 0.1 µM, first compound 0.949 µM): 66.9%
- viability, T/C (second compound 0.1 µM, first compound 3 µM): 62.5%
- viability, T/C [5]: 87.3%
- viability, T/C [6]: 93%
- viability, T/C [7]: 81%
- viability, T/C [8]: 76%
- viability, T/C (second compound 0.316 µM, first compound 0.949 µM): 71.2%
- viability, T/C (second compound 0.316 µM, first compound 3 µM): 66%
- viability, T/C [9]: 88.7%
- viability, T/C [10]: 103%
- viability, T/C [11]: 84%
- viability, T/C [12]: 73.8%
- viability, T/C (second compound 1 µM, first compound 0.949 µM): 68.2%
- viability, T/C (second compound 1 µM, first compound 3 µM): 65.8%
- viability, T/C [13]: 98.2%
- viability, T/C [14]: 81.4%
- viability, T/C [15]: 80.5%
- viability, T/C [16]: 70%
- viability, T/C (second compound 3.16 µM, first compound 0.949 µM): 62.7%
- viability, T/C (second compound 3.16 µM, first compound 3 µM): 63%
- viability, T/C [17]: 93.1%
- viability, T/C [18]: 80%
- viability, T/C [19]: 75.9%
- viability, T/C [20]: 77.9%
- viability, T/C (second compound 10 µM, first compound 0.949 µM): 72.7%
- viability, T/C (second compound 10 µM, first compound 3 µM): 72.7%
